Patent publication US20240115744A1, “FIBRIN-BINDING COMPOUNDS FOR IMAGING AND TREATMENT” (Collagen Medical, LLC, priority 2019, published 2024)
Entries after “also recorded” stand apart in the source; their conditions may differ. *1 amine or outer side, *2 acyl side, *3 side chain or, on linkers, in order; H or OH if unused. Where a SMILES comes first, the peptide text is derived from it. Bridges are numbered along the chain shown (N, C = ends). [ ]: non-standard residue; d: D form. The star is where a group is joined. NODAGA = O=C(O)CN1CCN(CC(=O)O)CCN(C(CCC(=O)*)C(=O)O)CC1; Tyr(3-Cl) = N[C@@H](Cc1ccc(O)c(Cl)c1)C(=O)O; X1 = O=C([C@@H]1CC(O)CN1[*:1])[*:2]

Assays:
[1] = Blood analysis in rat model of carotid artery crush injury (blood clearance); format: in vivo; conditions: relative to the other compounds compared
Description: (§1) Rat carotid endothelial injury model in vivo studies were conducted, wherein the common carotid artery is isolated and crushed briefly with a hemostat, resulting in mural thrombus formation at the site of the crush. The vessel wall fibrin is then imaged with our PET compounds. All six compounds were evaluated in this model.
(§2) Adult male Wistar rats were anesthetized by isoflurane (1-2% in medical air). Body temperature was maintained at 37° C. using a thermo-regulated heating pad. The right femoral vein and artery were cannulated for compound injection and blood sampling, respectively. Endothelial injury was induced by crush injury to the right common carotid artery (1-2 cm proximal to the carotid bifurcation) by clamping the vessel with a hemostat for 5 minutes. Immediately following the surgical procedures, rats were placed in a micro-PET/CT scanner. Compound (200-600 μL) was injected, PET-CT images were acquired, and blood samples were drawn from the femoral artery prior to compound injection and at 2, 5, 10, 15, 30, 60, 90, 120 min post injection. Tissues were harvested at the end for ex vivo analyses.
Blood samples were drawn from prior to probe injection and at 2, 5, 10, 15, 30, 60, 90, 120 min post injection. Each blood sample was weighed and counted using a gamma-counter. The activity in each sample was calculated as percent injected dose (% ID) per gram of tissue.

[2] = tested on: fibrin in human carotid endarterectomy specimens; assay: Ex vivo functional probe assay of human carotid endarterectomy specimens; conditions: compared to non-binding probe ^68Ga-22; 12 patients; P<0.05
Description: Twelve discarded surgical specimens from asymptomatic patients who underwent elective carotid endarterectomy at Massachusetts General Hospital were obtained and used in ex vivo studies described herein. Samples were processed for histology, autoradiography, and probe binding assay as described above (Examples 6 and 13).
Discarded surgical specimens were embedded in optimal cutting temperature compound, snap-frozen, and stored at −80° C. before further analysis. Alternating consecutive cryosections were processed for histology and autoradiography; triplicate tissue samples with 50 μm gap in between were used for these experiments. The remaining tissue samples were processed for functional probe assay.
For functional probe assay, samples were thawed at room temperature, weighed (8-15 mg per sample), cut into duplicates, and placed into tubes containing 111-148 kBq (3-4 μCi)^68Ga-20 or the non-fibrin binding control probe ^68Ga-22 in 1 mL PBS. The mixture was shaken for 45 minutes at room temperature. After centrifugation, supernatant (sup-1) was removed, kept for further analysis, and tissue samples were washed with PBS (1 mL); this procedure was repeated twice for each sample. Wash solutions (wash-1 and wash-2) were kept for further analysis. Activities in tissue samples and solutions sol-1, wash-1, and wash-2 were measured on a gamma counter. Percent uptake was calculated as follows: […]

Fibrin clots = assay: PET in rabbit model of high risk plaque (plaque-rupture model); format: in vivo
Source text: Mean SUV values, TBRvc and TBRm were compared across all rabbits after in vivo PET.

vessel wall fibrin = molecular target: T1, vessel wall fibrin (Rattus norvegicus, UniProt P02680+P06399+P14480); assay: Autoradiography / PET imaging of injured ipsi- and contra-lateral carotid arteries; format: in vivo; conditions: rat injured vs contra-lateral carotid; ^68Ga-19 vs ^68Ga-20
T1 construct: resulting in mural thrombus formation at the site of the crush; from tissue; host or cells: injured common carotid artery of Wistar rats (in vivo and ex vivo autoradiography)
T1 sequence (P06399 37-782 limits assumed): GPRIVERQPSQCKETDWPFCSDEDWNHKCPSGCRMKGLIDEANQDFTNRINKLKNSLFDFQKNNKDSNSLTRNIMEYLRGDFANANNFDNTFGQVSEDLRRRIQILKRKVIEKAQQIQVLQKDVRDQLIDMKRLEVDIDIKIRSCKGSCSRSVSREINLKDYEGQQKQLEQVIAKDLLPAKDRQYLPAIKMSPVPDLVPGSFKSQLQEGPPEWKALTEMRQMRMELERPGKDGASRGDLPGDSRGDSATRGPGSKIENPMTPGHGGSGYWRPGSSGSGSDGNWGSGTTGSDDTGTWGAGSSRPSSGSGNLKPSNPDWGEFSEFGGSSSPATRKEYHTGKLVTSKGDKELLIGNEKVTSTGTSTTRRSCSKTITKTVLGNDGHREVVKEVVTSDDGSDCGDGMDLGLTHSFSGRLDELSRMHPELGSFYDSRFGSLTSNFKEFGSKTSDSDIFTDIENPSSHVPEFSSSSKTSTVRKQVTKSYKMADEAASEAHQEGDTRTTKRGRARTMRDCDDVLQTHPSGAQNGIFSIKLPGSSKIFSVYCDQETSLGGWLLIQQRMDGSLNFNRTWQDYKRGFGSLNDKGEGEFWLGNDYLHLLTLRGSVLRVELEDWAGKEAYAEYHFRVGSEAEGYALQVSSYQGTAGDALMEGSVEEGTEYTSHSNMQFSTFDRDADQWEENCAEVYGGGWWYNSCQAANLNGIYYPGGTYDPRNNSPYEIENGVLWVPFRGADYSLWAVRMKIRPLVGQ
T1 sequence (P14480 33-479 limits assumed): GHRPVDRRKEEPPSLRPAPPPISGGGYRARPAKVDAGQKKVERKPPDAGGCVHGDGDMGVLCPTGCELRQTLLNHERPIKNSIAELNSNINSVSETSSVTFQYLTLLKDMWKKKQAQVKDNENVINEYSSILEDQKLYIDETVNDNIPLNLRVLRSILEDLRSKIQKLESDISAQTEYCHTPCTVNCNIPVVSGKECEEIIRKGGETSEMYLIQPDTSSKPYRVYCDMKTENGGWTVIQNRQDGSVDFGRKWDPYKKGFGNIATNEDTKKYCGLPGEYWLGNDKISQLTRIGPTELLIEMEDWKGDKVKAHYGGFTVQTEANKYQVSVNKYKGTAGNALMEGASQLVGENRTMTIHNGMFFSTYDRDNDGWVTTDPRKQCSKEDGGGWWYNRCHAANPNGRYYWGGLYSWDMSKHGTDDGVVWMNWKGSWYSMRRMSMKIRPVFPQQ
T1 sequence (P02680 27-445 limits assumed): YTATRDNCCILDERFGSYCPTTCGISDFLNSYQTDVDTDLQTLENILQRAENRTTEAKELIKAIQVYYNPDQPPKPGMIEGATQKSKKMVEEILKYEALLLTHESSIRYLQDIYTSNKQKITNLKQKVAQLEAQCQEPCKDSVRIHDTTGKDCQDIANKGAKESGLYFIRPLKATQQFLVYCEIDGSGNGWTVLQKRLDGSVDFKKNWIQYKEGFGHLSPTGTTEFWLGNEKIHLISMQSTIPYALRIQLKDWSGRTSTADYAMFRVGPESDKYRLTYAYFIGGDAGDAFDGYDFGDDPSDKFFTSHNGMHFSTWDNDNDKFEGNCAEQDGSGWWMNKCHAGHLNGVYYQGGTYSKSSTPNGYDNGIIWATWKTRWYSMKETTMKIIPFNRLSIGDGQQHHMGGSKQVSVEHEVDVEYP
Description: as §1, §2
The injured ipsi- and the contra-lateral carotid arteries were placed on a multipurpose film and imaged using a Perkin-Elmer Cyclone Plus Storage Phosphor system. […]

CC[C@H](C)[C@H](NC(=O)[C@H](Cc1cnc[nH]1)NC(=O)[C@@H]1CSSC[C@H](NC(=O)[C@@H](CCC(=O)O)NC(=O)[C@H](Cc2ccc(O)cc2)NC(=O)CCC(C(=O)O)N2CCN(CC(=O)O)CCN(CC(=O)O)CC2)C(=O)N2CC(O)C[C@H]2C(=O)N[C@@H](Cc2ccc(O)c(Cl)c2)C(=O)NCC(=O)N[C@@H](CC(C)C)C(=O)N1)C(=O)N[C@H](CCC(N)=O)C(N)=O (stereo partly shown) [Compound ^68Ga-20, metal not drawn] ({NODAGA}-Y[dE]C[X1][Tyr(3-Cl)]GLCHI[dQ]-NH2; disulfide 3-8)
blood clearance ([1]; rat carotid artery crush injury, 2-120 min post injection): faster blood clearance | metabolic stability ([1]; rat): better metabolic stability | uptake, functional probe assay [2]: variable but significantly increased; also recorded: significantly higher uptake | plaque rupture-to-control SUV ratios (Fibrin clots; across post injection imaging time points): higher plaque rupture-to-control SUV ratios were seen with longer post injection imaging time points | PET-MR uptake along the aorta (Fibrin clots; plaque rupture group vs control): Fibrin clots were seen as uptake spots along the aorta on the plaque rupture group | validation in rabbit model of high risk plaque (Fibrin clots; plaque-rupture model, in vivo PET): successfully validated | ipsi: contra ratios (vessel wall fibrin): better ipsi: contra ratios
